The values below come from PMC11945657, “Microwave-Assisted Synthesis of Morpholine-Based Chalcones as Reversible MAO-A Inhibitors in the Management of Mental Depression” (Pharmaceuticals, 2025).

Several values for one entry are separate records, joined by “and”; a condition that tells them apart may be missing. Identical values can stand only once. Like-named read-outs stand apart in the source and are kept apart here. Bounds are passed on as bounds.

The nature of test [1]: DPPH free radical scavenging antioxidant assay. On the procedure:
H2O2 produced during metabolic events in the brain may be crucial for signaling and metabolic functions. The compounds were screened to check their potential to inhibit ROS through the DPPH assay. […] However, further studies are required to confirm this effect.
The DPPH approach, which gauges the free radical scavenging activity, was used to evaluate the antioxidant properties of the compounds. The test was performed according to the literature method. The stock solution of DPPH (0.5 mM) was prepared, and methanol was used to create each dilution. The different concentrations (10, 25, 50, 75, and 100 μM) of the test compounds (C1–C15) were prepared and compared with the standard ascorbic acid. The percentage antioxidant activity of the compounds was calculated using the following formula: % Antioxidant activity = [(Aabsorbance − Atest)/Aabsorbance] × 100.
For orientation: Loss of DPPH colour is used to gauge radical scavenging.

Test [2] concerns the target T1, hMAO-A (Homo sapiens, UniProt P21397).
T1 sequence (P21397 1-527): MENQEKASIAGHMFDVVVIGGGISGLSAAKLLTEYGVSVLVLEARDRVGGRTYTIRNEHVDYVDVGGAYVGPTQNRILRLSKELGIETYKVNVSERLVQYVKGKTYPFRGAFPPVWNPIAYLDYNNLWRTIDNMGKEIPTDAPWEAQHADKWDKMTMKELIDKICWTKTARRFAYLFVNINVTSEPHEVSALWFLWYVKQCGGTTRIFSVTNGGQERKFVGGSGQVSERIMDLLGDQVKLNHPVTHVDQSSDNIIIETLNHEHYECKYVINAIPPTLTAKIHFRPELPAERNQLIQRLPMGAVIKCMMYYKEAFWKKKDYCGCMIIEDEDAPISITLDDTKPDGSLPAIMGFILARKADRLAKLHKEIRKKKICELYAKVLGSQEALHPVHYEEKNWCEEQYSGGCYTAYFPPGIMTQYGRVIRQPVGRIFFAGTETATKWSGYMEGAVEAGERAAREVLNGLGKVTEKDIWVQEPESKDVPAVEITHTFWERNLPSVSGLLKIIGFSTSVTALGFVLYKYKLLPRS
As to the kind of experiment: MAO inhibition assay (Amplex Red, fluorimetric), MAO-A.

Test [3] addresses T2, hMAO-B (Homo sapiens, UniProt P27338).
T2 sequence (P27338 1-520): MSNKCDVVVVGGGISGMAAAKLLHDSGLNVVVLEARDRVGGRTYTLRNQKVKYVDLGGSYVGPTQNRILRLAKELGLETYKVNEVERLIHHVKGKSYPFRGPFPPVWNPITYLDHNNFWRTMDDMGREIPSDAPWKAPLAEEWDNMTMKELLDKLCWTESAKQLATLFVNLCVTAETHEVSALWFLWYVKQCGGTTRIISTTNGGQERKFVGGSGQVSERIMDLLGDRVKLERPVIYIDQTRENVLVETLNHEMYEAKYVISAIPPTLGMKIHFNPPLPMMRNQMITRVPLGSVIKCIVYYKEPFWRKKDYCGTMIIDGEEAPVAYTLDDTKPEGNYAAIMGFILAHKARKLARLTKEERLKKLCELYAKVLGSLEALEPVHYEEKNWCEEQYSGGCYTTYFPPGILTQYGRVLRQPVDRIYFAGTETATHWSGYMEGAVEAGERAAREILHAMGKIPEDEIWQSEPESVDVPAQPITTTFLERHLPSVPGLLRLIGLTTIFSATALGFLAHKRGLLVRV
Kind of test: MAO inhibition assay (Amplex Red, fluorimetric), MAO-B.

Setting [4] is: read-out: Percentage Inhibition at 20 μM MAO-A.
[5] abbreviates: read-out: Percentage Inhibition at 20 μM MAO-B.
Where [6] appears, read: read-out: IC50 Values MAO-A, class symbol, IC50 not calculated.
Setting [7] is: read-out: Percentage Inhibition at 20 μM MAO-A, 20 μM.

For the molecule `O=C1O[C@H]([C@@H](O)CO)C(O)=C1O` [Ascorbic acid, ascorbic acid, reference compound], the “% Antioxidant Activity” value in test [1] (10 µM) was 8.03%; in test [1] (25 µM), 20.27%; in test [1] (50 µM), 40.23%; in test [1] (75 µM) it was 46.33%; in test [1] (100 µM) it was 58.53%; in test [1] (100 µM, listed as ascorbic acid) it was 50%.

On to `C#CCN(C)CCCOc1ccc(Cl)cc1Cl` [Clorgyline, clorgyline, reference compound], for which, in test [2] (setting [4]), the inhibition at 20 µM turned out to be 95%.

With `O=C(/C=C/c1ccc(Br)cc1)c1ccc(N2CCOCC2)cc1` [Compound C1, (E)-3-(4-Bromophenyl)-1-(4-morpholinophenyl)prop-2-en-1-one], the “% Antioxidant Activity” value was 9.24% in test [1] (10 µM); 21.80% in test [1] (25 µM); 35.78% in test [1] (50 µM); 50% and 53.13% in test [1] (75 µM); 50% and 54.82% in test [1] (100 µM). Further, the inhibition at 20 µM in test [2] (read-out: IC50 Values MAO-A) is less than 50%; in test [2] (setting [4]) it was 13.6%; in test [3] (read-out: IC50 Values MAO-B), less than 50%; in test [3] (setting [5]), 6.59%.

As for `O=C(/C=C/c1ccc(Cl)c(Cl)c1)c1ccc(N2CCOCC2)cc1` [Compound C2, (E)-3-(3,4-Dichlorophenyl)-1-(4-morpholinophenyl)prop-2-en-1-one], the “% Antioxidant Activity” value in test [1] (10 µM) was 6.63%; in test [1] (25 µM), 25.78%; in test [1] (50 µM), 37.18%; in test [1] (75 µM) it was 50% and 50.91%; in test [1] (100 µM) it was 50% and 53.12%. The inhibition at 20 µM in test [2] (setting [6]) was less than 50%; in test [2] (setting [7]) it was 19.4%; in test [3] (read-out: IC50 Values MAO-B), less than 50%; in test [3] (setting [5]) it was 4.74%.

In the case of `O=C(/C=C/c1ccc(F)cc1)c1ccc(N2CCOCC2)cc1` [Compound C3, (E)-3-(4-Fluorophenyl)-1-(4-morpholinophenyl)prop-2-en-1-one], the “% Antioxidant Activity” value is 14.58% in test [1] (10 µM); 38.25% in test [1] (25 µM); 40.31% in test [1] (50 µM); 50% and 53.10% in test [1] (75 µM); 56.87% in test [1] (100 µM). In addition, the inhibition at 20 µM in test [2] (setting [6]) is less than 50%; in test [2] (setting [7]), 37.7%; in test [3] (read-out: IC50 Values MAO-B) it was less than 50%; in test [3] (setting [5]), 7.11%.

For `COc1ccc(/C=C/C(=O)c2ccc(N3CCOCC3)cc2)cc1OC` [Compound C4, (E)-3-(3,4-Dimethoxyphenyl)-1-(4-morpholinophenyl)prop-2-en-1-one], the “% Antioxidant Activity” value was 16.37% in test [1] (10 µM); 32.47% in test [1] (25 µM); 41.07% in test [1] (50 µM); 33.69% in test [1] (75 µM); 50% and 52.62% in test [1] (100 µM). In addition, the inhibition at 20 µM was less than 50% in test [2] (setting [6]), 15.8% in test [2] (setting [7]), less than 50% in test [3] (read-out: IC50 Values MAO-B) and 5.56% in test [3] (setting [5]).

`O=C(/C=C/c1ccc(Br)c(F)c1)c1ccc(N2CCOCC2)cc1` [Compound C5, (E)-3-(4-Bromo-3-fluorophenyl)-1-(4-morpholinophenyl)prop-2-en-1-one]: the “% Antioxidant Activity” value is 19.11% in test [1] (10 µM); 23.41% in test [1] (25 µM); 38.15% in test [1] (50 µM); 49.88% in test [1] (75 µM); 50% and 50.95% in test [1] (100 µM). In addition, the inhibition at 20 µM is less than 50% in test [2] (setting [6]), 36.8% in test [2] (setting [7]), less than 50% in test [3] (read-out: IC50 Values MAO-B) and 6.54% in test [3] (setting [5]).

Regarding `O=C(/C=C/c1ccc(Cl)cc1)c1ccc(N2CCOCC2)cc1` [Compound C7, (E)-3-(4-Chlorophenyl)-1-(4-morpholinophenyl)prop-2-en-1-one], the “% Antioxidant Activity” value in test [1] (10 µM) is 13.81%; in test [1] (25 µM) it was 15.62%; in test [1] (50 µM), 32.06%; in test [1] (75 µM), 50% and 52.12%; in test [1] (100 µM), 50% and 53.37%. In addition, the inhibition at 20 µM in test [2] (read-out: IC50 Values MAO-A) is less than 50%; in test [2] (setting [4]) it was 21.4%; in test [3] (read-out: IC50 Values MAO-B) it was less than 50%; in test [3] (setting [5]), 7.43%.

Take `Cc1cccc(/C=C/C(=O)c2ccc(N3CCOCC3)cc2)c1` [Compound C8, (E)-1-(4-Morpholinophenyl)-3-(m-tolyl)prop-2-en-1-one]: the “% Antioxidant Activity” value in test [1] (10 µM) was 16.56%; in test [1] (25 µM), 31.47%; in test [1] (50 µM) it was 36.01%; in test [1] (75 µM), 49.24%; in test [1] (100 µM), 66.42%. The inhibition at 20 µM is less than 50% in test [2] (setting [6]), 3.11% in test [2] (setting [7]), less than 50% in test [3] (read-out: IC50 Values MAO-B) and 6.32% in test [3] (setting [5]).

For the molecule `Cc1ccc(/C=C/C(=O)c2ccc(N3CCOCC3)cc2)cc1` [Compound C9, (E)-1-(4-Morpholinophenyl)-3-(p-tolyl)prop-2-en-1-one], the “% Antioxidant Activity” value in test [1] (10 µM) stood at 8.65%; in test [1] (25 µM), 23.43%; in test [1] (50 µM) it was 35.75%; in test [1] (75 µM) it was 39.19%; in test [1] (100 µM), 44.66%. Also, the inhibition at 20 µM in test [2] (read-out: IC50 Values MAO-A) is less than 50%; in test [2] (setting [4]) it was 4.95%; in test [3] (read-out: IC50 Values MAO-B), less than 50%; in test [3] (setting [5]) it was 6.77%.

For `O=C(/C=C/c1cccc(F)c1)c1ccc(N2CCOCC2)cc1` [Compound C10, (E)-3-(3-Fluorophenyl)-1-(4-morpholinophenyl)prop-2-en-1-one], the “% Antioxidant Activity” value worked out at 17.09% in test [1] (10 µM); 21.05% in test [1] (25 µM); 34.56% in test [1] (50 µM); 42.27% in test [1] (75 µM); 32.62% in test [1] (100 µM). Further, the inhibition at 20 µM was less than 50% in test [2] (setting [6]), 33.9% in test [2] (setting [7]), less than 50% in test [3] (read-out: IC50 Values MAO-B) and 12.4% in test [3] (setting [5]).

`COc1ccccc1/C=C/C(=O)c1ccc(N2CCOCC2)cc1` [Compound C11, (E)-3-(2-Methoxyphenyl)-1-(4-morpholinophenyl)prop-2-en-1-one]: the “% Antioxidant Activity” value in test [1] (10 µM) is on record as 13.89%; in test [1] (25 µM) it was 16.00%; in test [1] (50 µM) it was 40.26%; in test [1] (75 µM) it was 27.09%; in test [1] (100 µM), 36.45%. The inhibition at 20 µM in test [2] (setting [6]) was less than 50%; in test [2] (setting [7]), 21.1%; in test [3] (read-out: IC50 Values MAO-B) it was less than 50%; in test [3] (setting [5]), 18.6%.

For the molecule `C#CCN(C)Cc1ccccc1` [Pargyline, pargyline, reference compound], the results for the inhibition at 20 µM in test [2] (setting [4]) and in test [3] (setting [5]) were less than 50% and 99%, respectively.
